Measured values reported in ChEMBL document CHEMBL1641410, “In silico discovery of acylated flavonol monorhamnosides from Eriobotrya japonica as natural, small-molecular weight inhibitors of XIAP BIR3” (Bioorg Med Chem, 2011).

Assays:
[1] = molecular target: E3 ubiquitin-protein ligase XIAP (Homo sapiens, UniProt P98170); experiment: Displacement of fluorescent SM5F peptide from XIAP linker BIR3 domain after 3 hrs by fluorescence polarization assay
[2] = Chemical stability of the compound after 15 hrs; type: physicochemical

Sequence of E3 ubiquitin-protein ligase XIAP (P98170 whole entry, the tested form may be a part): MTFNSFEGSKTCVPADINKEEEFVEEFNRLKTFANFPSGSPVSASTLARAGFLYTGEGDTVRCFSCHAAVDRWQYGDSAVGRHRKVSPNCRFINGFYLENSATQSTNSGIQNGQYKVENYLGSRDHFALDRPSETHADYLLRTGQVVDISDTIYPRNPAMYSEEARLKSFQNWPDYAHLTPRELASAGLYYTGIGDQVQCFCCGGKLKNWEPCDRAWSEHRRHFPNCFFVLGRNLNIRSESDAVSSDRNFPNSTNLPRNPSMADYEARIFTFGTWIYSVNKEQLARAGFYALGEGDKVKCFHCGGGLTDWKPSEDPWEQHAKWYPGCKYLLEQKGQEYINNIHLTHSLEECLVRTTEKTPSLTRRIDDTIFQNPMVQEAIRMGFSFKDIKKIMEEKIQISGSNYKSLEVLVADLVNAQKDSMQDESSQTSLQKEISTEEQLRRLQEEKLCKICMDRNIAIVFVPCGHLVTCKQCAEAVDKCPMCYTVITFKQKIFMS

SMILES | IC50 [1] | Stability [2]
O=c1c(O)c(-c2ccc(O)cc2)oc2cc(O)cc(O)c12 [KAEMPFEROL] | > 100 µM | 
C[C@@H]1O[C@@H](Oc2c(-c3ccc(O)cc3)oc3cc(O)cc(O)c3c2=O)[C@H](OC(=O)/C=C/c2ccc(O)cc2)[C@H](O)[C@H]1OC(=O)/C=C/c1ccc(O)cc1 | > 10.4 µM | Stable
